Measured values published in patent US10160772B2, “5,6-dihydro-4H-benzo[b]thieno-[2,3-d]azepine derivatives” (PULMOCIDE LIMITED, priority 2014, dated 2018).
pIC50: −log10 of the molar value.

Experiments:
Format in all cases: cell-based
RSV A2 strain = assay: RSV A2-induced CPE in Hep2 cells; conditions: human respiratory syncytial virus, Hep2 cells; for pIC50: HEp-2, 120 h, RSV A2 1 MOI, 5 days, resazurin, read-out: RSV A2 CPE IC50
Experimental: (§1) Biological Testing: Experimental Methods Assessment of RSV Induced CPE in Hep2 Cells
(§2) Hep2 cells were seeded (10^3/well/50 μL) in 384-well plates (Catalogue number 353962, BD Falcon, Oxford, UK) in 5% serum free-DMEM containing 2 mM L-glutamine and 1 mM sodium pyruvate one day before infection. RSV A2 strain (#0709161v, NCPV, Public Health England, Wiltshire) or RSV B Washington strain (VR-1580, ATCC, Manassas, Va. 20108) virus solutions were prepared in serum free-DMEM with 2 mM L-glutamine and 1 mM sodium pyruvate, and then added (50 μL/well) to achieve a final virus concentration of 1 MOI for RSV A and 0.1MOI for RSV B. Simultaneously test compounds (0.5 μL DMSO solution) were added to 100 μL of Hep2 cell culture with virus solution to provide a final DMSO solution of 0.5%. Plates were incubated (37° C./5% CO2) for 5 days for studies using RSV A2 strain or 6 days for those using RSV B strain, and then resazurin sodium salt (5 μL of 0.03% solution; Sigma-Aldrich, Dorset, UK) was added to each well and the plate incubated for a further 6 hr (37° C. and 5% CO2). The fluorescence of each well [545 nm (excitation)/590 nm (emission)] was determined using a multi-scanner (Clariostar: BMG, Buckinghamshire, UK). The percentage inhibition for each well was calculated and the IC50, IC75 and IC90 values were calculated from the concentration-response curve generated for each test compound.

RSV B Washington strain = assay: RSV B-induced CPE in Hep2 cells; conditions: human respiratory syncytial virus, Hep2 cells; for pIC50: HEp-2, 144 h, RSV B Washington 0.1 MOI, 6 days, resazurin, read-out: RSV B CPE IC50; for inhibition at 1 µg/mL: HEp-2, at 1 μg/mL, read-out: RSV B CPE % Inhibition
Experimental: as §1, §2

[1] = system: RSV A2 F-protein expression; assay: RSV A2 F-protein expression in BEAS2B bronchial epithelial cells; conditions: human respiratory syncytial virus, BEAS-2B, 72 h, read-out: RSV A2 F-protein IC50
Experimental: Assessment of RSV F Protein Expression in BEAS2B Bronchial Epithelial Cells
An early event which follows the infection of epithelial cells by RSV is the expression of RSV F-protein on the cells' surface. BEAS2B cells (SV40-immortalised human bronchial epithelial cell line) were grown in 96 well plates. Once more than 70% confluent, cells were infected with RSV A2 (#0709161v, NCPV, Public Health England, Wiltshire) at an MOI of 0.01 in clear RPMI-1640 medium (Life technologies, Paisley, UK) with 2% FBS (Life technologies, Paisley, UK), and incubated for 3 days (37° C./5% CO2).
Supernatant was aspirated and the cells were fixed with 4% formaldehyde (100 μL in PBS solution) for 20 min, washed 3 times with washing buffer (200 μL; PBS containing 0.05% Tween-20) and incubated with blocking solution (100 μL; 5% Marvel milk in PBS) for 1 hr. Cells were then washed with washing buffer (200 μL) and incubated for 1 hr at 37° C. with anti-RSV (2F7; mouse monoclonal, lot 160290, Cat. No. ab43812, Abcam plc, Cambridge, UK) F-fusion protein antibody (50 μL; prepared at a 1:1000 dilution in 5% milk/PBS-tween). After washing, cells were incubated with an HRP-conjugated anti-mouse IgG antibody (50 μL prepared at a 1:2000 dilution in 5% milk in PBS; lot 00095437, Cat. No. P0447, Dako UK Ltd, Cambridgeshire, UK) for 1 hr. Cells were washed twice with washing buffer and once with PBS. TMB substrate (100 μL; substrate reagent pack lot 320436, Cat. No. DY999, R&D Systems, Inc. Abingdon, UK) was then added and the reaction was stopped by the addition of aq sulfuric acid (50 μL; 2N). The resultant signal was determined colourimetrically (OD: 450 nm with a reference wavelength of 655 nm) in a microplate reader (Multiskan FC®, ThermoFisher Scientific). Cells were then washed and 1% crystal violet solution (50 μL; lot SLB4576, Cat. No. HT90132-1L, Sigma-Aldrich) was applied for 30 min. After washing with PBS (200 μL) 3 times, 1% SDS (100 μL) was added to each well, and plates were shaken lightly for 1 hr prior to reading the absorbance at 595 nm. The measured OD450-655 readings were corrected for cell number by dividing the OD450-655 by the OD595 readings. The percentage inhibition for each well was calculated and the IC50 value derived from the concentration-response curve generated for each test compound.

[2] = Cell viability: resazurin assay in Hep2 cells; conditions: human, 5 days incubation
Experimental: Cell Viability: Resazurin Assay Hep2 cells were seeded in 384-well plates (10^3/well/50 μL; BD Falcon Ref 353962) in FBS DMEM (5%, containing 2 mM L-glutamine and 1 mM sodium pyruvate) one day before experimentation. Serum-free DMEM (50 μL) was added to test wells while for control wells the media was removed and sterile water (100 μL) was added. Test compounds (0.5 μL DMSO solution) were added to give a final DMSO concentration of 0.5%. Hep2 cells were incubated with each test compound for 5 days (37° C./5% CO2 in 5% FBS) and then resazurin stock solution (5 μL; 0.03%) was added to each well and the plate incubated further for a further 6 hrs (37° C./5% CO2). The fluorescence of each well at 545 nm (excitation) and 590 nm (emission) was determined using a multi-scanner (Clariostar: BMG Labtech). The percentage loss of cell viability was calculated for each well relative to vehicle (0.5% DMSO) treatment. Where appropriate, a CC50 value was calculated from the concentration-response curve generated from the concentration-response curve for each test compound.

| SMILES | pIC50 (RSV A2 strain) | inhibition at 0.1 µg/mL (RSV A2 strain; HEp-2, at 0.1 μg/mL, read-out: RSV A2 CPE % Inhibition) [%] | pIC50 (RSV B Washington strain) | inhibition at 1 µg/mL (RSV B Washington strain) [%] | pIC50 [1] | CC50 at 5 days [2] [nM] | inhibition at 0.01 µg/mL (RSV A2 strain; HEp-2, at 0.01 μg/mL (footnote 2), read-out: RSV A2 CPE % Inhibition) [%] |
| --- | --- | --- | --- | --- | --- | --- | --- |
| N#Cc1cccc2nc(-c3cc4c(s3)-c3ccccc3N(C(=O)c3ccc(NC(=O)c5cccnc5N5CC6(CCOCC6)C5)cc3)CC4)[nH]c12 [Example 12, N-(4-(2-(7-cyano-1H-benzo[d]imidazol-2-yl)-5,6-dihydro-4H-benzo[b]thieno[2,3-d]azepine-6-carbonyl)phenyl)-2-(7-oxa-2-azaspiro[3.5]nonan-2-yl)nicotinamide] | 9.03 | 100 | 6.95 | 100 | 9.68 | > 14500 |  |
| Cc1cnc(N2CC3(CCOCC3)C2)c(C(=O)Nc2ccc(C(=O)N3CCc4cc(-c5nc6cccc(F)c6[nH]5)sc4-c4ccccc43)cc2)c1 [Example 14, N-(4-(2-(7-fluoro-1H-benzo[d]imidazol-2-yl)-5,6-dihydro-4H-benzo[b]thieno[2,3-d]azepine-6-carbonyl)phenyl)-5-methyl-2-(7-oxa-2-azaspiro[3.5]nonan-2-yl)nicotinamide] | 9.62 |  | 9.00 | 100 | 9.51 | > 14300 | 93 |
